Laboratory results published in ChEMBL document CHEMBL5104199, “Design, Synthesis, and Biochemical and Biological Evaluation of Novel 7-Deazapurine Cyclic Dinucleotide Analogues as STING Receptor Agonists” (J Med Chem, 2022).

How the values were obtained:
[1] = Induction of IFNgamma secretion in human PBMC incubated for 16 hrs
[2] = Induction of TNFalpha secretion in human PBMC incubated for 16 hrs
[3] = Cytotoxicity against human PBMC cells; assay type: toxicity, cell-based
[4] = Induction of IFNalpha secretion in human PBMC incubated for 16 hrs
[5] = biological target: T1, Stimulator of interferon genes protein (Homo sapiens, UniProt Q86WV6); test: Agonist activity at human wild type full length STING expressed in 293T cells incubated for 7 hrs by luciferase/cell based assay; design: species or system HEK-293T
[6] = biological target: T1, Stimulator of interferon genes protein; details: filed as agonist
Description: Binding affinity to human wild type STING assessed as change in melting temperature by differential scanning fluorimetry (DSF) method

cells [7] = details: Homo sapiens, HEK-293T
Description: Agonist activity at human STING Q expressed in 293T cells by digitonin cell based assay

cells [8] = details: Homo sapiens, HEK-293T; remark: listed apart in the source
Description: Agonist activity at human STING HAQ expressed in 293T cells by digitonin cell based assay

cells [9] = details: Homo sapiens, HEK-293T; remark: listed apart in the source
Description: Agonist activity at human STING REF expressed in 293T cells by digitonin cell based assay

[10] = biological target: T1, Stimulator of interferon genes protein; test: Agonist activity at human wild type STING expressed in 293T cells by digitonin cell based assay; design: species or system HEK293T
cells [11] = details: Homo sapiens, HEK-293T; remark: listed apart in the source
Description: Agonist activity at human STING AQ expressed in 293T cells by digitonin cell based assay

T1 sequence (Q86WV6 whole entry): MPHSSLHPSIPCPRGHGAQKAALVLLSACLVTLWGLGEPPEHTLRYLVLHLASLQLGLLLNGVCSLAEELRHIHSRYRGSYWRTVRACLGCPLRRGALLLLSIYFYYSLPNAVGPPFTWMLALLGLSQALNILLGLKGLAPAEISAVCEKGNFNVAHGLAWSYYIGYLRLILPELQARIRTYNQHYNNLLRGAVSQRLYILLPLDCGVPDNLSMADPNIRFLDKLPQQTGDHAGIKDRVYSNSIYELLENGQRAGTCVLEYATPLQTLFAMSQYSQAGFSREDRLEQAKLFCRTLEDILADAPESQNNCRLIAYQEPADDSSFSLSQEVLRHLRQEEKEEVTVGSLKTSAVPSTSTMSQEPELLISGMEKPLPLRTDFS

SMILES | EC50 [1] [µM] | EC50 [2] [µM] | EC50 [4] [µM] | EC50 [5] [µM] | ΔTm [6] [°C] | EC50 (cells [7]) [µM] | EC50 (cells [8]) [µM] | EC50 (cells [9]) [µM] | EC50 [10] [µM] | EC50 (cells [11]) [µM] | Activity [3]
Nc1nc2c(ncn2[C@@H]2O[C@@H]3COP(=O)(O)O[C@H]4[C@@H](O)[C@H](n5cnc6c(N)ncnc65)O[C@@H]4COP(=O)(O)O[C@H]3[C@H]2O)c(=O)[nH]1 | 17.2 | 18.7 | 7.65 | – | – | – | – | – | – | – | Non-Toxic
Nc1nc2c(ncn2[C@@H]2O[C@@H]3COP(=O)(O)O[C@H]4[C@@H](O)[C@H](n5cnc6c(N)ncnc65)O[C@@H]4COP(=O)(O)O[C@@H]2[C@@H]3O)c(=O)[nH]1 | – | – | – | – | – | – | – | – | – | – | Non-Toxic
Nc1ncnc2c1c(-c1ccccc1)cn2[C@@H]1O[C@@H]2COP(=O)(O)O[C@@H]3[C@H](O)[C@@H](COP(=O)(O)O[C@H]2[C@H]1O)O[C@H]3n1cc(-c2ccccc2)c2c(N)ncnc21 | – | – | – | > 150 | -0.6 | > 45 | > 45 | > 45 | > 45 | > 45 | –
Nc1nc2c(ncn2[C@@H]2O[C@@H]3COP(=O)(O)O[C@H]4[C@@H](O)[C@H](n5cc(-c6ccco6)c6c(N)ncnc65)O[C@@H]4COP(=O)(O)O[C@@H]2[C@@H]3O)c(=O)[nH]1 | – | – | – | – | – | – | – | – | – | – | Non-Toxic
Nc1nc2c(ncn2[C@@H]2O[C@@H]3COP(=O)(O)O[C@@H]4[C@H](O)[C@@H](COP(=O)(O)O[C@@H]2[C@@H]3O)O[C@H]4n2cnc3c(N)ncnc32)c(=O)[nH]1 | 11.8 | 44.5 | 7.21 | > 150 | 2.5 | 7.09 | 0.189 | 59.5 | 0.26 | 0.173 | Non-Toxic
Nc1nc2c(ncn2[C@@H]2O[C@@H]3COP(=O)(O)O[C@H]4[C@@H](O)[C@H](n5cc(-c6cc7ccccc7c7ccccc67)c6c(N)ncnc65)O[C@@H]4COP(=O)(O)O[C@@H]2[C@@H]3O)c(=O)[nH]1 | – | > 200 | > 200 | – | 4.4 | > 45 | 0.9 | > 45 | 0.061 | 1.4 | Non-Toxic
Nc1nc2c(ncn2[C@@H]2O[C@@H]3COP(=O)(O)O[C@H]4[C@@H](O)[C@H](n5cc(C6CC6)c6c(N)ncnc65)O[C@@H]4COP(=O)(O)O[C@@H]2[C@@H]3O)c(=O)[nH]1 | – | – | – | – | – | – | – | – | – | – | Non-Toxic
Nc1nc2c(ncn2[C@@H]2O[C@@H]3COP(=O)(O)O[C@H]4[C@@H](O)[C@H](n5cc(-c6ccc7c8c(cccc68)CC7)c6c(N)ncnc65)O[C@@H]4COP(=O)(O)O[C@@H]2[C@@H]3O)c(=O)[nH]1 | 85.2 | > 200 | 74.7 | > 150 | 2.5 | 35.9 | 1.63 | > 45 | 1.16 | 1.53 | Non-Toxic
Nc1nc2c(c(-c3ccccc3)cn2[C@@H]2O[C@@H]3COP(=O)(O)O[C@H]4[C@@H](O)[C@H](n5cc(-c6ccccc6)c6c(N)ncnc65)O[C@@H]4COP(=O)(O)O[C@@H]2[C@@H]3O)c(=O)[nH]1 | – | – | – | > 150 | 1 | 0.271 | 9.42 | 19.5 | 6.41 | 10.3 | –
Cc1cn([C@@H]2O[C@@H]3COP(=O)(O)O[C@@H]4[C@H](O)[C@@H](COP(=O)(O)O[C@H]3[C@H]2O)O[C@H]4n2cnc3c(=O)[nH]c(N)nc32)c2ncnc(N)c12 | – | – | – | – | – | – | – | – | – | – | Non-Toxic
Nc1nc2c(ncn2[C@@H]2O[C@@H]3COP(=O)(O)O[C@H]4[C@@H](O)[C@H](n5cc(-c6cccs6)c6c(N)ncnc65)O[C@@H]4COP(=O)(O)O[C@@H]2[C@@H]3O)c(=O)[nH]1 | – | – | – | – | – | – | – | – | – | – | Non-Toxic

Second part, led by results:

EC50 [1] [µM] | EC50 [2] [µM] | EC50 [4] [µM] | EC50 [5] [µM] | ΔTm [6] [°C] | EC50 (cells [7]) [µM] | EC50 (cells [8]) [µM] | EC50 (cells [9]) [µM] | EC50 [10] [µM] | EC50 (cells [11]) [µM] | SMILES | Activity [3]
12.6 | 65.8 | 6.92 | > 150 | 5.1 | 4.48 | 0.367 | 10.4 | 0.11 | 0.28 | Nc1nc2c(ncn2[C@@H]2O[C@@H]3COP(=O)(O)O[C@H]4[C@@H](O)[C@H](n5cc(-c6ccccc6)c6c(N)ncnc65)O[C@@H]4COP(=O)(O)O[C@H]3[C@H]2O)c(=O)[nH]1 | Non-Toxic
2.05 | 13.6 | 7.43 | – | 12.3 | 0.235 | 0.173 | 0.346 | 0.013 | 0.092 | Nc1nc2c(ncn2[C@@H]2O[C@@H]3COP(=O)(O)O[C@H]4[C@@H](O)[C@H](n5cc(-c6ccc(-c7ccccc7)cc6)c6c(N)ncnc65)O[C@@H]4COP(=O)(O)O[C@@H]2[C@@H]3O)c(=O)[nH]1 | Non-Toxic
1.77 | 53.9 | 5.09 | – | 13 | 0.95 | 0.132 | 1 | 0.032 | 0.16 | Nc1nc2c(ncn2[C@@H]2O[C@@H]3COP(=O)(O)O[C@H]4[C@@H](O)[C@H](n5cc(-c6ccc(-c7ccc8ccccc8c7)cc6)c6c(N)ncnc65)O[C@@H]4COP(=O)(O)O[C@@H]2[C@@H]3O)c(=O)[nH]1 | Non-Toxic
– | 98.8 | – | – | 14.4 | 0.7 | 0.695 | 1.4 | 0.048 | 0.55 | Nc1nc2c(ncn2[C@@H]2O[C@@H]3COP(=O)(O)O[C@H]4[C@@H](O)[C@H](n5cc(-c6ccc7ccccc7c6)c6c(N)ncnc65)O[C@@H]4COP(=O)(O)O[C@@H]2[C@@H]3O)c(=O)[nH]1 | Non-Toxic
0.87 | 1.43 | 4.04 | – | 13.5 | 0.25 | 0.195 | 0.35 | 0.035 | 0.33 | Nc1nc2c(ncn2[C@@H]2O[C@@H]3COP(=O)(O)O[C@H]4[C@@H](O)[C@H](n5cc(-c6cc7ccccc7s6)c6c(N)ncnc65)O[C@@H]4COP(=O)(O)O[C@@H]2[C@@H]3O)c(=O)[nH]1 | Non-Toxic
– | 52.5 | – | – | 8.1 | 1.7 | 0.385 | 5.9 | 0.063 | 0.307 | Nc1nc2c(ncn2[C@@H]2O[C@@H]3COP(=O)(O)O[C@H]4[C@@H](O)[C@H](n5cc(-c6ccccc6)c6c(N)ncnc65)O[C@@H]4COP(=O)(O)O[C@@H]2[C@@H]3O)c(=O)[nH]1 | Non-Toxic
– | 99.7 | – | – | 7.1 | 7.07 | 0.503 | 8.97 | 0.367 | 0.869 | Nc1nc2c(ncn2[C@@H]2O[C@@H]3COP(=O)(O)O[C@H]4[C@@H](O)[C@H](n5cc(-c6cccc7c6oc6ccccc67)c6c(N)ncnc65)O[C@@H]4COP(=O)(O)O[C@@H]2[C@@H]3O)c(=O)[nH]1 | Non-Toxic
8.33 | 24.6 | 12.8 | – | 12.1 | 0.176 | 0.06 | 0.334 | 0.076 | 0.085 | Nc1nc2c(ncn2[C@@H]2O[C@@H]3COP(=O)(O)O[C@H]4[C@@H](O)[C@H](n5cc(-c6cc7ccccc7o6)c6c(N)ncnc65)O[C@@H]4COP(=O)(O)O[C@@H]2[C@@H]3O)c(=O)[nH]1 | Non-Toxic
– | > 200 | – | – | 4.4 | 7.23 | 0.497 | 18.9 | 1.1 | 0.47 | Nc1nc2c(ncn2[C@@H]2O[C@@H]3COP(=O)(O)O[C@H]4[C@@H](O)[C@H](n5cc(-c6cccc7ccccc67)c6c(N)ncnc65)O[C@@H]4COP(=O)(O)O[C@@H]2[C@@H]3O)c(=O)[nH]1 | Non-Toxic
